We go through 6 compounds from ChEMBL document CHEMBL1139645, “Action of a novel pyrrolo[1,2-c][1.3]benzodiazepine on the viability of Jurkat and neuronal/glial cells” (2005).

Assay [1] can be described thus: Effect of compound on cell viability in non-transformed neuronal/glial cells measured as percent reduction of MTT at 570 nm O.D. and exposure to 100 uM NMDA; Control value 0.56 %. The assay is classed as functional, Rattus norvegicus.
For the next assay, the system named is Jurkat. The assay is described as follows: Effect of compound on cell viability in human leukemic Jurkat cells measured as percent reduction of MTT at 570 nm O.D.; Control value 0.47 %. Format: functional.
The nature of assay [2]: Effect of compound on cell viability in non-transformed neuronal/glial cells measured as percent reduction of MTT at […] O.D.; Control value 0.56 %. The assay is classed as functional, Rattus norvegicus.
A short description of assay [3]: Effect of compound on cell viability in non-transformed neuronal/glial cells measured as percent reduction of MTT at 570 nm O.D. at 100 uM; Control value 0.56 %. Format: functional, Rattus norvegicus.

Turning to `O=c1c2ccccc2nc(S)n2cccc12`, the MTT reduction in assay [1] was determined as 0.28 O.D; in the assay with Jurkat, 0.41 O.D; in assay [2], 0.62 O.D.
As to `Oc1c2nccc-2c(S)nc2ccccc12`, the MTT reduction was 0.25 O.D in assay [1], 0.45 O.D in the assay on Jurkat and 0.55 O.D in assay [2].
On to `Nc1ccccc1C(=O)c1ccc[nH]1`, for which the figures for the MTT reduction (in assay [1]; in the assay on Jurkat; in assay [2]) were 0.3 O.D, 0.39 O.D and 0.65 O.D, respectively.
The like results for `Nc1ccccc1Cc1ccc[nH]1` were, in that order, 0.22 O.D, 0.34 O.D and 0.38 O.D.
As to `CN[C@H](CC(=O)O)C(=O)O` [N-METHYL-D-ASPARTIC ACID (NMDA)], the MTT reduction in assay [3] is 0.29 O.D.
`SC1=Nc2ccccc2Cc2cccn21`: the values for the MTT reduction (in assay [1]; in the assay on Jurkat; in assay [2]) were 0.17 O.D, 0.22 O.D and 0.58 O.D, respectively.
